Data from the NIST ThermoML archive (doi:10.1016/j.jct.2010.08.016).
± gives the expanded uncertainty stated by the source.

Experiments:
[1] = refractive index (Na D-line) (dimensionless); xn = mol fraction of the nth substance listed; details: 101 kPa, Liquid, Standard Abbe refractometry
[2] = xn = mol fraction of the nth substance listed; details: 101 kPa, Liquid; for electrical conductivity: Alternating current cell with electrodes; for mass density: Vibrating tube method

## NC(CO)(CO)CO [2-amino-2-(hydroxymethyl)-1,3-propanediol] + O
[1]; 293.15 K, x1 = 0.01
  refractive index: 1.34226 ± 0.00031
[1]; 293.15 K, x1 = 0.02
  refractive index: 1.35089 ± 0.00031
[1]; 293.15 K, x1 = 0.03
  refractive index: 1.35884 ± 0.00031
[1]; 293.15 K, x1 = 0.04
  refractive index: 1.37118 ± 0.00031
[1]; 293.15 K, x1 = 0.05
  refractive index: 1.37635 ± 0.00031
[1]; 293.15 K, x1 = 0.06
  refractive index: 1.3797 ± 0.00031
[1]; 293.15 K, x1 = 0.07
  refractive index: 1.38587 ± 0.00031
[1]; 298.15 K, x1 = 0.01
  refractive index: 1.34173 ± 0.00031
[1]; 298.15 K, x1 = 0.02
  refractive index: 1.35029 ± 0.00031
[1]; 298.15 K, x1 = 0.03
  refractive index: 1.35819 ± 0.00031
[1]; 298.15 K, x1 = 0.04
  refractive index: 1.37048 ± 0.00031
[1]; 298.15 K, x1 = 0.05
  refractive index: 1.37565 ± 0.00031
[1]; 298.15 K, x1 = 0.06
  refractive index: 1.37896 ± 0.00031
[1]; 298.15 K, x1 = 0.07
  refractive index: 1.38509 ± 0.00031
[1]; 303.15 K, x1 = 0.01
  refractive index: 1.34111 ± 0.00031
[1]; 303.15 K, x1 = 0.02
  refractive index: 1.34961 ± 0.00031
[1]; 303.15 K, x1 = 0.03
  refractive index: 1.35746 ± 0.00031
[1]; 303.15 K, x1 = 0.04
  refractive index: 1.3697 ± 0.00031
[1]; 303.15 K, x1 = 0.05
  refractive index: 1.37485 ± 0.00031
[1]; 303.15 K, x1 = 0.06
  refractive index: 1.37816 ± 0.00031
[1]; 303.15 K, x1 = 0.07
  refractive index: 1.38425 ± 0.00031
[1]; 308.15 K, x1 = 0.01
  refractive index: 1.34042 ± 0.00031
[1]; 308.15 K, x1 = 0.02
  refractive index: 1.34889 ± 0.00031
[1]; 308.15 K, x1 = 0.03
  refractive index: 1.35667 ± 0.00031
[1]; 308.15 K, x1 = 0.04
  refractive index: 1.36888 ± 0.00031
[1]; 308.15 K, x1 = 0.05
  refractive index: 1.37406 ± 0.00031
[1]; 308.15 K, x1 = 0.06
  refractive index: 1.37728 ± 0.00031
[1]; 308.15 K, x1 = 0.07
  refractive index: 1.38334 ± 0.00031
[1]; 313.15 K, x1 = 0.01
  refractive index: 1.33972 ± 0.00031
[1]; 313.15 K, x1 = 0.02
  refractive index: 1.34821 ± 0.00031
[1]; 313.15 K, x1 = 0.03
  refractive index: 1.35596 ± 0.00031
[1]; 313.15 K, x1 = 0.04
  refractive index: 1.36815 ± 0.00031
[1]; 313.15 K, x1 = 0.05
  refractive index: 1.37347 ± 0.00031
[1]; 313.15 K, x1 = 0.06
  refractive index: 1.37673 ± 0.00031
[1]; 313.15 K, x1 = 0.07
  refractive index: 1.38271 ± 0.00031
[1]; 318.15 K, x1 = 0.01
  refractive index: 1.33899 ± 0.00031
[1]; 318.15 K, x1 = 0.02
  refractive index: 1.34742 ± 0.00031
[1]; 318.15 K, x1 = 0.03
  refractive index: 1.3552 ± 0.00031
[1]; 318.15 K, x1 = 0.04
  refractive index: 1.36739 ± 0.00031
[1]; 318.15 K, x1 = 0.05
  refractive index: 1.37247 ± 0.00031
[1]; 318.15 K, x1 = 0.06
  refractive index: 1.37581 ± 0.00031
[1]; 318.15 K, x1 = 0.07
  refractive index: 1.38182 ± 0.00031
[1]; 323.15 K, x1 = 0.01
  refractive index: 1.3381 ± 0.00031
[1]; 323.15 K, x1 = 0.02
  refractive index: 1.34668 ± 0.00031
[1]; 323.15 K, x1 = 0.03
  refractive index: 1.35447 ± 0.00031
[1]; 323.15 K, x1 = 0.04
  refractive index: 1.36673 ± 0.00031
[1]; 323.15 K, x1 = 0.05
  refractive index: 1.37176 ± 0.00031
[1]; 323.15 K, x1 = 0.06
  refractive index: 1.37507 ± 0.00031
[1]; 323.15 K, x1 = 0.07
  refractive index: 1.38124 ± 0.00031
[1]; 328.15 K, x1 = 0.01
  refractive index: 1.33723 ± 0.00031
[1]; 328.15 K, x1 = 0.02
  refractive index: 1.34603 ± 0.00031
[1]; 328.15 K, x1 = 0.03
  refractive index: 1.35389 ± 0.00031
[1]; 328.15 K, x1 = 0.04
  refractive index: 1.36626 ± 0.00031
[1]; 328.15 K, x1 = 0.05
  refractive index: 1.37115 ± 0.00031
[1]; 328.15 K, x1 = 0.06
  refractive index: 1.37453 ± 0.00031
[1]; 328.15 K, x1 = 0.07
  refractive index: 1.38089 ± 0.00031
[2]; 293.15 K, x1 = 0.01
  electrical conductivity: 0.0158 ± 0.00032 S/m
  mass density: 1022.2 ± 0.8 kg/m3
[2]; 293.15 K, x1 = 0.02
  electrical conductivity: 0.0179 ± 0.00036 S/m
  mass density: 1036.6 ± 0.8 kg/m3
[2]; 293.15 K, x1 = 0.03
  electrical conductivity: 0.0189 ± 0.00038 S/m
  mass density: 1049.4 ± 0.8 kg/m3
[2]; 293.15 K, x1 = 0.04
  electrical conductivity: 0.0193 ± 0.00039 S/m
  mass density: 1056.4 ± 0.8 kg/m3
[2]; 293.15 K, x1 = 0.05
  electrical conductivity: 0.0205 ± 0.00041 S/m
  mass density: 1073.8 ± 0.8 kg/m3
[2]; 293.15 K, x1 = 0.06
  electrical conductivity: 0.0205 ± 0.00041 S/m
  mass density: 1079.9 ± 0.8 kg/m3
[2]; 293.15 K, x1 = 0.07
  electrical conductivity: 0.018 ± 0.00036 S/m
  mass density: 1090 ± 0.8 kg/m3
[2]; 303.15 K, x1 = 0.01
  electrical conductivity: 0.0195 ± 0.00039 S/m
[2]; 303.15 K, x1 = 0.02
  electrical conductivity: 0.0229 ± 0.00046 S/m
[2]; 303.15 K, x1 = 0.03
  electrical conductivity: 0.0247 ± 0.00049 S/m
[2]; 303.15 K, x1 = 0.04
  electrical conductivity: 0.0253 ± 0.00051 S/m
[2]; 303.15 K, x1 = 0.05
  electrical conductivity: 0.0271 ± 0.00054 S/m
[2]; 303.15 K, x1 = 0.06
  electrical conductivity: 0.0271 ± 0.00054 S/m
[2]; 303.15 K, x1 = 0.07
  electrical conductivity: 0.0235 ± 0.00047 S/m
